Among the data in patent US10202360B2 (CELGENE QUANTICEL RESEARCH, INC., priority 2016, dated 2019) are IC50 values, retold here.

One may read the IC50 as the concentration that inhibits the measured activity by half. A lower IC50 goes with inhibition by little substance.

The target in this experiment is CREBBP (Homo sapiens (Human), UniProt Q92793). Nature of the experiment: In vitro enzyme inhibition assay - CREBBP inhibition (AlphaScreen, biotinylated H4-tetraacetyl peptide). It is filed as binding. The following applies: Table 28; AlphaScreen, H4-tetraacetyl peptide. How it is done: Determination of the IC50 for the CREBBP inhibitors disclosed herein was performed as follows: CREBBP was cloned and expressed in E. Coli as His-tag protein and purified by Nickel affinity and gel-filtration chromatography. […] CREBBP binding and inhibition was assessed by monitoring the interaction of biotinylated H4-tetraacetyl peptide (AnaSpec, H4K5/8/12/16(Ac), biotin-labeled) with the target using the AlphaScreen technology (Perkin Elmer). In a 384-well ProxiPlate CREBBP (50 nM final) was combined with peptide (20 nM final) in 50 mM HEPES (pH 7.3), 10 mM NaCl, 0.25 mM TCEP, 0.1% (w/v) BSA, and 0.005% (w/v) Brij-35 either in the presence of DMSO (final 0.4% DMSO) or compound dilution series in DMSO. After 20-minute incubation at room temperature, Alpha streptavidin donor beads and Nickel Chelate acceptor beads were added to a final concentration of 5 μg/mL. After two hours of equilibration, plates were read on an Envision instrument and the IC50 was calculated using a four parameter non-linear curve fit.
CREBBP, sequence (Q92793 1081-1197): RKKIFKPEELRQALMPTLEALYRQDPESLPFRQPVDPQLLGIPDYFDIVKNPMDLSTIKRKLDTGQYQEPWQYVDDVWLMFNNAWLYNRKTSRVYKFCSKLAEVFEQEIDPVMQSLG
The ability of the compounds disclosed herein to inhibit CBP activity was quantified and the respective IC50 value was determined.
For orientation: Bead proximity is the source of the signal in Alpha formats.

With `Cc1cc(-c2cc(NS(=O)(=O)C(C)C)nc(Oc3ccc(F)cc3F)n2)cn(C)c1=O` [Example 62, N-(2-(2,4-difluorophenoxy)-6-(1,5-dimethyl-6-oxo-1,6-dihydropyridin-3-yl)pyrimidin-4-yl)propane-2-sulfonamide], the IC50 was under 500 nM.

`Cc1cc(-c2cc(NS(=O)(=O)C3CC3)nc(Oc3ccc(F)cc3F)n2)cn(C)c1=O` [Example 63, N-(2-(2,4-difluorophenoxy)-6-(1,5-dimethyl-6-oxo-1,6-dihydropyridin-3-yl)pyrimidin-4-yl)cyclopropanesulfonamide]: the IC50 was under 500 nM.

`CCCCS(=O)(=O)Nc1cc(-c2cc(C)c(=O)n(C)c2)nc(Oc2ccc(F)cc2F)n1` [Example 64, N-(2-(2,4-difluorophenoxy)-6-(1,5-dimethyl-6-oxo-1,6-dihydropyridin-3-yl)pyrimidin-4-yl)butane-1-sulfonamide]: the half-maximal inhibitory concentration (IC50) is under 500 nM.

Take `Cc1cc(-c2cc(NS(=O)(=O)C(C)(C)C)nc(Oc3ccc(F)cc3F)n2)cn(C)c1=O` [Example 65, N-(2-(2,4-difluorophenoxy)-6-(1,5-dimethyl-6-oxo-1,6-dihydropyridin-3-yl)pyrimidin-4-yl)-2-methylpropane-2-sulfonamide]: the concentration for half-maximal inhibition (IC50) was under 500 nM.

With `Cc1cc(F)ccc1Oc1nc(NS(=O)(=O)C(C)C)cc(-c2cc(C)c(=O)n(C)c2)n1` [Example 67, N-(6-(1,5-dimethyl-6-oxo-1,6-dihydropyridin-3-yl)-2-(4-fluoro-2-methylphenoxy)pyrimidin-4-yl)propane-2-sulfonamide], the IC50 is under 500 nM.

In turn, `COc1ccc(Oc2nc(NS(=O)(=O)C(C)C)cc(-c3cc(C)c(=O)n(C)c3)n2)cc1Cl` [Example 68, N-(2-(3-chloro-4-methoxyphenoxy)-6-(1,5-dimethyl-6-oxo-1,6-dihydropyridin-3-yl)pyrimidin-4-yl)propane-2-sulfonamide] returned an IC50 of under 500 nM.

As to `Cc1cc(-c2cc(NS(=O)(=O)C(C)C)nc(Oc3ccccc3)n2)cn(C)c1=O` [Example 69, N-(6-(1,5-dimethyl-6-oxo 1,6-dihydropyridin-3-yl)-2-phenoxypyrimidin-4-yl)propane-2-sulfonamide], the IC50 was under 500 nM.

The molecule `Cc1cc(-c2cc(NS(=O)(=O)C(C)C)nc(Oc3ccc(F)cc3)n2)cn(C)c1=O` [Example 70, N-(6-(1,5-dimethyl-6-oxo-1,6-dihydropyridin-3-yl)-2-(4-fluorophenoxy)pyrimidin-4-yl)propane-2-sulfonamide] displayed a half-maximal inhibitory concentration (IC50) of under 500 nM.

Take `Cc1cccc(C)c1Oc1nc(NS(=O)(=O)C(C)C)cc(-c2cc(C)c(=O)n(C)c2)n1` [Example 71, N-(6-(1,5-dimethyl-6-oxo-1,6-dihydropyridin-3-yl)-2-(2,6-dimethylphenoxy)pyrimidin-4-yl)propane-2-sulfonamide]: the half-inhibitory concentration (IC50) was under 500 nM.

In turn, `Cc1cc(-c2cc(N(C)S(=O)(=O)C(C)C)nc(Oc3ccc(F)cc3F)n2)cn(C)c1=O` [Example 73, N-(2-(2,4-difluorophenoxy)-6-(1,5-dimethyl-6-oxo-1,6-dihydropyridin-3-yl)pyrimidin-4-yl)-N-methylpropane-2-sulfonamide] registered an IC50 of under 500 nM.

In turn, `CCCCS(=O)(=O)Nc1cc(-c2cc(C)c(=O)n(C)c2)nc(Oc2cnn(C)c2)n1` [Example 74, N-(6-(1,5-dimethyl-6-oxo-1,6-dihydropyridin-3-yl)-2-((1-methyl-1H-pyrazol-4-yl)oxy)pyrimidin-4-yl)butane-1-sulfonamide] returned an IC50 of under 500 nM.

The molecule `CCCCS(=O)(=O)Nc1cc(-c2cc(C)c(=O)n(C)c2)nc(Oc2cccc3c2ccn3C)n1` [Example 75, N-(6-(1,5-dimethyl-6-oxo-1,6-dihydropyridin-3-yl)-2-((1-methyl-1H-indol-4-yl)oxy)pyrimidin-4-yl)butane-1-sulfonamide] displayed an IC50 of under 500 nM.

In turn, `Cc1cc(-c2cc(NS(=O)(=O)C(C)C)nc(Oc3cccc4c3ccn4C)n2)cn(C)c1=O` [Example 76, N-(6-(1,5-dimethyl-6-oxo-1,6-dihydropyridin-3-yl)-2-((1-methyl-1H-indol-4-yl)oxy)pyrimidin-4-yl)propane-2-sulfonamide] had an IC50 of under 500 nM.

Turning to `Cc1cc(-c2cc(NC(=O)CC(C)C)nc(Oc3ccc(F)cc3F)n2)cn(C)c1=O` [Example 77, N-(2-(2,4-difluorophenoxy)-6-(1,5-dimethyl-6-oxo-1,6-dihydropyridin-3-yl)pyrimidin-4-yl)-3-methylbutanamide], the half-maximal inhibitory concentration (IC50) is 500 to 5000 nM.

`COCCS(=O)(=O)Nc1cc(-c2cc(C)c(=O)n(C)c2)nc(Oc2c(C)cccc2C)n1` [Example 78, N-(6-(1,5-dimethyl-6-oxo-1,6-dihydropyridin-3-yl)-2-(2,6-dimethylphenoxy)pyrimidin-4-yl)-2-methoxyethane-1-sulfonamide]: the IC50 is under 500 nM.

For the molecule `CCCCC(=O)Nc1cc(-c2cc(C)c(=O)n(C)c2)nc(Oc2ccc(F)cc2F)n1` [Example 79, N-(2-(2,4-difluorophenoxy)-6-(1,5-dimethyl-6-oxo-1,6-dihydropyridin-3-yl)pyrimidin-4-yl)pentanamide], the half-maximal inhibitory concentration (IC50) is under 500 nM.

Regarding `CCCS(=O)(=O)Nc1cc(-c2cc(C)c(=O)n(C)c2)nc(Oc2c(C)cccc2C)n1` [Example 80, N-(6-(1,5-dimethyl-6-oxo-1,6-dihydropyridin-3-yl)-2-(2,6-dimethylphenoxy)pyrimidin-4-yl)propane-1-sulfonamide], the 50% inhibitory concentration (IC50) was under 500 nM.

Take `Cc1cccc(C)c1Oc1nc(NS(=O)(=O)CCCF)cc(-c2cc(C)c(=O)n(C)c2)n1` [Example 81, N-(6-(1,5-dimethyl-6-oxo-1,6-dihydropyridin-3-yl)-2-(2,6-dimethylphenoxy)pyrimidin-4-yl)-3-fluoropropane-1-sulfonamide]: the half-inhibitory concentration (IC50) was under 500 nM.

On to `Cc1cccc(C)c1Oc1nc(NS(=O)(=O)CC2CC2)cc(-c2cc(C)c(=O)n(C)c2)n1` [Example 82, 1-cyclopropyl-N-(6-(1,5-dimethyl-6-oxo-1,6-dihydropyridin-3-yl)-2-(2,6-dimethylphenoxy)pyrimidin-4-yl)methanesulfonamide], for which the IC50 was under 500 nM.

`Cc1cccc(C)c1Oc1nc(NS(=O)(=O)CC(C)C)cc(-c2cc(C)c(=O)n(C)c2)n1` [Example 83, N-(6-(1,5-dimethyl-6-oxo-1,6-dihydropyridin-3-yl)-2-(2,6-dimethylphenoxy)pyrimidin-4-yl)-2-methylpropane-1-sulfonamide] showed a concentration for half-maximal inhibition (IC50) of under 500 nM.

In the case of `CCC(C)S(=O)(=O)Nc1cc(-c2cc(C)c(=O)n(C)c2)nc(Oc2c(C)cccc2C)n1` (stereo not drawn) [Example 84, N-(6-(1,5-dimethyl-6-oxo-1,6-dihydropyridin-3-yl)-2-(2,6-dimethylphenoxy)pyrimidin-4-yl)butane-2-sulfonamide], the IC50 is under 500 nM.

`COC(C)CS(=O)(=O)Nc1cc(-c2cc(C)c(=O)n(C)c2)nc(Oc2c(C)cccc2C)n1` (stereo not drawn) [Example 85, N-(6-(1,5-dimethyl-6-oxo-1,6-dihydropyridin-3-yl)-2-(2,6-dimethylphenoxy)pyrimidin-4-yl)-2-methoxypropane-1-sulfonamide] gave an IC50 of under 500 nM.

`CCCCS(=O)(=O)Nc1cc(-c2cc(F)c(=O)n(C)c2)nc(Oc2c(C)cccc2C)n1` [Example 86, N-(2-(2,6-dimethylphenoxy)-6-(5-fluoro-1-methyl-6-oxo-1,6-dihydropyridin-3-yl)pyrimidin-4-yl)butane-1-sulfonamide] had an IC50 of under 500 nM.

`CCCCS(=O)(=O)Nc1cc(-c2cc(C)c(=O)n(C)c2)nc(Oc2c(C)nn(C)c2C)n1` [Example 88, N-(6-(1,5-dimethyl-6-oxo-1,6-dihydropyridin-3-yl)-2-((1,3,5-trimethyl-1H-pyrazol-4-yl)oxy)pyrimidin-4-yl)butane-1-sulfonamide] had an IC50 of under 500 nM.

Molecule `CCCCS(=O)(=O)Nc1cc(-c2cn(C)c(=O)cc2C)nc(Oc2c(C)cccc2C)n1` [Example 89, N-(6-(1,4-dimethyl-6-oxo-1,6-dihydropyridin-3-yl)-2-(2,6-dimethylphenoxy)pyrimidin-4-yl)butane-1-sulfonamide] had an IC50 of under 500 nM.

The molecule `Cc1cc(-c2cc(NS(=O)(=O)C(C)C)cc(Oc3ccc(F)cc3F)n2)cn(C)c1=O` [Example 90, N-(6-(2,4-difluorophenoxy)-1′,5′-dimethyl-6′-oxo-1′,6′-dihydro-[2,3′-bipyridin]-4-yl)propane-2-sulfonamide] gave an IC50 of under 500 nM.

As for `Cc1cc(-c2cc(NS(=O)(=O)C(C)C)nc(Nc3ccc(F)cc3F)n2)cn(C)c1=O` [Example 91, N-(2-((2,4-difluorophenyl)amino)-6-(1,5-dimethyl-6-oxo-1,6-dihydropyridin-3-yl)pyrimidin-4-yl)propane-2-sulfonamide], the half-maximal inhibitory concentration (IC50) is under 500 nM.

Consider `CCCS(=O)(=O)Nc1cc(-c2cc(C)c(=O)n(C)c2)cc(Oc2c(C)cccc2C)n1` [Example 92, N-(6′-(2,6-dimethylphenoxy)-1,5-dimethyl-6-oxo-1,6-dihydro-[3,4′-bipyridin]-2′-yl)propane-1-sulfonamide], for which the IC50 was under 500 nM.

For `Cc1cc(-c2cc(NS(=O)(=O)C(C)C)nc(Cc3ccc(F)cc3F)n2)cn(C)c1=O` [Example 93, Propane-2-sulfonic acid [2-(2,4-difluoro-benzyl)-6-(1,5-dimethyl-6-oxo-1,6-dihydro-pyridin-3-yl)-pyrimidin-4-yl]-amide], the IC50 was in the range of 500 to 5000 nM.

For `CCS(=O)(=O)Nc1cc(-c2cc(C)c(=O)n(C)c2)nc(Cc2ccc(F)cc2F)n1` [Example 94, Ethanesulfonic acid [2-(2,4-difluoro-benzyl)-6-(1,5-dimethyl-6-oxo-1,6-dihydro-pyridin-3-yl)-pyrimidin-4-yl]-amide], the IC50 is under 500 nM.
